The assay addresses T1, human recombinant renin (Homo sapiens, UniProt P00797).
T1 sequence (P00797 67-406): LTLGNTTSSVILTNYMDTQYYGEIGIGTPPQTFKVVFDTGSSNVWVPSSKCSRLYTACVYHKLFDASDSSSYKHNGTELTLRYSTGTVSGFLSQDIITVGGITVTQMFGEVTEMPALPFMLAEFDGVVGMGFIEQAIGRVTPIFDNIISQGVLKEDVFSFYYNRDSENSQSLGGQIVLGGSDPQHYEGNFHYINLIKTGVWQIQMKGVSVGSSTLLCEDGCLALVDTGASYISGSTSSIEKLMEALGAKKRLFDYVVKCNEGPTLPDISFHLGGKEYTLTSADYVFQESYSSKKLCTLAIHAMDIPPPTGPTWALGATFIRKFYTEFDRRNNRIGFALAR
Put plainly: Inhibition of human recombinant renin (enzymatic in vitro assay, Ang I detected by EIA). The assay is classed as biochemical. Particulars: human recombinant renin 0.16 ng/mL, synthetic human angiotensin(1-14) 0.5 μM, 37° C. for 3 h. As for the experimental part:
Inhibition of Human Recombinant Renin by the Compounds of the Invention The enzymatic in vitro assay was performed in 384well polypropylene plates (Nunc). The assay buffer consisted of 10 mM PBS (Gibco BRL) including 1 mM EDTA and 0.1% BSA. The incubates were composed of 50 μL per well of an enzyme mix and 2.5 μL of renin inhibitors in DMSO. The enzyme mix was premixed at 4° C. and consists of the following components: • human recombinant renin (0.16 ng/mL).synthetic human angiotensin(1-14) (0.5 μM) • hydroxyquinoline sulfate (1 mM) The mixtures were then incubated at 37° C. for 3 h. To determine the enzymatic activity and its inhibition, the accumulated Ang I was detected by an enzyme immunoassay (EIA) in 384well plates (Nunc). 5 μL of the incubates or standards were transferred to immuno plates which were previously coated with a covalent complex of Ang I and bovine serum albumin (Ang I—BSA). […] of Ang I-antibodies in essaybuffer above including 0.01% Tween 20 were added and a primary incubation made at 4° C. overnight The plates were washed 3 times with PBS including 0.01% Tween 20, and then incubated for 2 h at rt with an antirabbit-peroxidase coupled antibody (WA 934, Amersham).

SMILES strings stand for the structures.

Turning to `COCCCOc1nccc(CN(C(=O)C2=C(c3ccc(CCCOc4c(F)ccc(F)c4Cl)cc3)C[C@@H]3CC[C@H]2N3)C2CC2)c1C` (racemic) [Example 1, (rac.)-(1R*,5S*)-3-{4-[3-(2-Chloro-3,6-difluorophenoxy)propyl]phenyl}-8-azabicyclo[3.2.1]oct-2-ene-2-carboxylic acid cyclopropyl-[2-(3-methoxy-propoxy)-3-methylpyridin-4-ylmethyl]amide], the IC50 (commonly the concentration needed to halve the response being measured) came out at 0.79 nM.

The values are drawn from patent publication US20070135406A1, “Diazabicyclononene and tetrahydropyridine derivatives with a new side-chain” (priority 2003, published 2007).
